Experimental data: US10874856B2, “Device for treating a cutaneous ulcer” (priority 2013, dated 2020)

Legend:
digital ulcers = conditions: cited from earlier work
[1] = test system: Raynaud's attacks and ulcers; conditions: intravenous, versus placebo; cited from earlier work
skin blood flow [2] = test: Continuous cathodal iontophoresis on the forearm of healthy volunteers, skin blood flow by laser Doppler imaging; format: in vivo, human; conditions: 250 μM treprostinil, cathodal iontophoresis 20 minutes
Protocol: A clinical study then included 20 healthy volunteers. These subjects received 3 concentrations of treprostinil via continuous cathodal iontophoresis on the forearm for 20 minutes and a control iontophoresis of 0.9% NaCl. Skin blood flow was quantified by laser Doppler imaging.
This effect is expressed as cutaneous vascular conductance (CVC; percentage of the baseline) recorded up to 24 hours.
To implement iontophoresis on the forearm, several iontophoresis chambers containing treprostinil liquid solution in contact with a cathode, and an anode at a distance of about 15 cm from the cathode, are placed on the inside of the forearm of each patient. […] Treprostinil liquid solution was in direct contact with the subject's skin.

[3] = Treprostinil quantification in dermal dialysate fluid (microdialysis, HPLC-MS/MS), forearm; format: in vivo, human; conditions: post-iontophoresis
Text: The use of treprostinil to impregnate a primary dressing has the advantage of making it possible to cover larger areas of skin. However, it was not obvious that the results obtained by iontophoresis of treprostinil in liquid solution form in direct contact with the patient's skin could be obtained with the embodiment in accordance with the invention.

[4] = Treprostinil plasma assay (HPLC-MS/MS) after iontophoresis on forearm and fingers; format: in vivo, human; conditions: after iontophoresis for 20 minutes on the forearm and for 2 hours on the fingers
Protocol: However, the fact that the patient's skin is in extended contact with an active substance is likely to involve the systemic passage of treprostinil. The Inventors thus assayed treprostinil in the plasma using high-performance liquid chromatography coupled to tandem mass spectrometry after iontophoresis for 20 minutes on the forearm and for 2 hours on the fingers.

[5] = test system: blood flow in the pad of the finger; test: Iontophoresis of treprostinil impregnating a primary dressing on the finger pad, laser speckle contrast imaging of blood flow; format: in vivo, human
Protocol: FIG. 3 reproduces an image obtained by laser speckle contrast imaging of blood flow in the pad of the index finger treated by iontophoresis of treprostinil impregnating a primary dressing and in the pad of the middle finger of the same hand treated by iontophoresis of 0.9% NaCl impregnating another primary dressing, in a healthy subject. The iontophoresis was carried out under the following conditions: 240 mC/cm^2, direct current. Two 7.2 cm^2 Ag—AgCl electrodes (Iogel, Iomed Inc., Salt Lake City, Utah, USA) were soaked in 1.5 ml of treprostinil or NaCl solution (double-blind).
These drug-soaked electrodes were connected to the cathode, while the anode was connected to passive electrodes attached at a distance of 10 cm. Low-voltage computer-controlled generators were used (PF 751 Perilont USB Power Supply, Perimed, Järfálla, Sweden). The voltage was recorded continuously in order to estimate the skin's resistance.
FIG. 4 reproduces an image obtained by laser speckle contrast imaging of blood flow in the pad of a ring finger treated by iontophoresis of treprostinil impregnating a primary dressing and in the pad of the middle finger of the same hand treated by iontophoresis of 0.9% NaCl, in a subject with scleroderma. The variation in blood flow is represented in same manner as in FIG. 3.

[6] = Plasma treprostinil concentration in scleroderma patients post-iontophoresis; format: in vivo; conditions: human, other: cathodal iontophoresis, 250 μM, 30 minutes post-iontophoresis
skin blood flow [7] = conditions: rat
skin blood flow [8] = conditions: 12 scleroderma patients, 250 μM, direct current, 240 mC/cm^2

## COc1ccccc1Oc1c(NS(=O)(=O)c2ccc(C(C)(C)C)cc2)nc(-c2ncccn2)nc1OCCO [bosentan]
Digital ulcers; RAPIDS-2 study
  risk of developing new ulcers: significantly reduced the risk
Digital ulcers; in vivo
  healing of preexisting ulcers: no advantage

## CC#CCC(C)[C@H](O)/C=C/[C@@H]1[C@H]2C/C(=C/CCCC(=O)O)C[C@H]2C[C@H]1O (stereo partly drawn) [iloprost]
[1]
  frequency of Raynaud's attacks and healing time of ulcers: provided an advantage

## CCCCC[C@H](O)CC[C@@H]1[C@H]2Cc3cccc(OCC(=O)O)c3C[C@H]2C[C@H]1O [treprostinil]
Skin blood flow [2]
  cutaneous vascular conductance AUC80 min: 31,897±24,390 % BL·min
[3]
  time treprostinil present in the dermis of the forearm (average): up to 8 hours
[4]
  systemic passage (plasma quantification): negligible systemic passage
[5]; healthy subject, index finger, 240 mC/cm^2, direct current
  vasomotor effect on finger pad, healthy subject (FIG. 3): marked vasomotor effect
[5]; subject with scleroderma, ring finger
  vasomotor effect on finger pad, subject with scleroderma (FIG. 4): marked vasomotor effect
[6]
  concentration at 30 min: < 1.8 pg/mL
Skin blood flow [7]; 20 minutes of cathodal iontophoresis at 100 μA, liquid solution in direct contact with skin
  cutaneous vasodilatation: caused cutaneous vasodilatation
Skin blood flow [7]; cathodal iontophoresis
  persistence of effect after iontophoresis is over: at least 60 minutes
Skin blood flow [7]; in vivo
  local toxicity, clinically and after systematic skin biopsies: No sign of local toxicity
Skin blood flow [7]; no current or anodal current
  effect on skin blood flow absent current or with anodal current: no effect on skin blood flow
Skin blood flow [8]
  skin blood flow: increase in skin blood flow
  tolerance: well tolerated
